Patent US20070128193A1, “GLP-1 agonists, compositions, methods and uses” (priority 2004, published 2007)
Where no end group is shown, it is not given here.

Key:
[1] = administered subcutaneously; cited from earlier work
[2] = system: RINm cells; experiment: Insulin secretion in RINm cells; type: cell-based; details: peptides 0-5 nM; mimetibodies 5 or 50 nM
Procedure: GLP-1 mimetibody causes insulin secretion in RINm cells. To test the effect of GLP-1 mimetibody in insulin secretion, RINm cells were treated with increasing concentrations of GLP-1 (7-36) peptide (0-5 nM) (FIG. 6A), exendin-4 peptide (0-5 nM) (FIG. 6A), or various GLP-1 mimetibodies (5 or 50 nM) and the amount of insulin secreted was measured via ELISA. All GLP-1 mimetibodys tested had activities in stimulating insulin secretion in RINm cells.

[3] = biological target: T1, GLP-1R (Homo sapiens, UniProt P43220); experiment: FACS binding assay, HEK293 cells over-expressing GLP-1R; details: 20 nM, 2 hours at 4° C.
T1 construct: expressed in transfected cells; host or cells: HEK293
T1 sequence (P43220 24-463, species assumed): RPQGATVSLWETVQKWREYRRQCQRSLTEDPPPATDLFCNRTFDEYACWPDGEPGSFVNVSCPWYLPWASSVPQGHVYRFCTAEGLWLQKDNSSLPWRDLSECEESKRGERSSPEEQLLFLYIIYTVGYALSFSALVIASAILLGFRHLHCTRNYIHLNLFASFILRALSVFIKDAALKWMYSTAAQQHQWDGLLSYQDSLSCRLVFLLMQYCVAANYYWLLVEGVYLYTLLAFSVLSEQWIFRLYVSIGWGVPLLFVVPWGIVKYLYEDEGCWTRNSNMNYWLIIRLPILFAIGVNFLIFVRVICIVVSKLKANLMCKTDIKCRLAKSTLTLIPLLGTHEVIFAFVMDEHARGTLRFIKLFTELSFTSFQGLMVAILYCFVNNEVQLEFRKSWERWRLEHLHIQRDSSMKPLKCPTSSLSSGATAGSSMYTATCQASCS
Procedure: FACS Binding Assay. The activity of GLP-1 mimetibody was tested in an in vitro FACS binding assay. To determine whether the GLP-1 mimetibody binds GLP-1R, HEK293 cells (1×10^6 cells) over-expressing GLP-1R were incubated with GLP-1 mimetibody (20 nM) for 2 hours at 4° C. The cells were washed, and a fluorescently labeled secondary detection antibody (1 μg/mL goat anti-human IgG, Fc gamma specific) was added for 30 minutes at 4° C. The fluorescence intensity of the cells was monitored via flow cytometry.

[4] = Human serum stability assay; type: in vitro ADME; details: 30 nM, 37° C.
Procedure: Human Serum stability assay. The stability of the GLP-1 mimetibody in serum was also measured to ensure that other serum proteases were not able to cleave and inactivate the GLP-1 mimetibody. Briefly, GLP1 peptide or the GLP1 mimetibody (30 nM) was incubated in human serum at 37° C. After various times, samples were evaluated to determine the amount of intact peptide or mimetibody. The reactions were quenched with a DPP-IV inhibitor (100 μM, Linco), and the samples were analyzed using the GLP-1 Active ELISA from Linco.

[5] = biological target: T2, DPP-IV (Homo sapiens, UniProt P27487); experiment: DPP-IV cleavage assay; type: in vitro ADME; details: 1.2 nM, DPP-IV 1 μg/mL, room temperature, 0-40 minutes
T2 construct: purchased R&D Systems
T2 sequence (P27487 whole entry, species assumed): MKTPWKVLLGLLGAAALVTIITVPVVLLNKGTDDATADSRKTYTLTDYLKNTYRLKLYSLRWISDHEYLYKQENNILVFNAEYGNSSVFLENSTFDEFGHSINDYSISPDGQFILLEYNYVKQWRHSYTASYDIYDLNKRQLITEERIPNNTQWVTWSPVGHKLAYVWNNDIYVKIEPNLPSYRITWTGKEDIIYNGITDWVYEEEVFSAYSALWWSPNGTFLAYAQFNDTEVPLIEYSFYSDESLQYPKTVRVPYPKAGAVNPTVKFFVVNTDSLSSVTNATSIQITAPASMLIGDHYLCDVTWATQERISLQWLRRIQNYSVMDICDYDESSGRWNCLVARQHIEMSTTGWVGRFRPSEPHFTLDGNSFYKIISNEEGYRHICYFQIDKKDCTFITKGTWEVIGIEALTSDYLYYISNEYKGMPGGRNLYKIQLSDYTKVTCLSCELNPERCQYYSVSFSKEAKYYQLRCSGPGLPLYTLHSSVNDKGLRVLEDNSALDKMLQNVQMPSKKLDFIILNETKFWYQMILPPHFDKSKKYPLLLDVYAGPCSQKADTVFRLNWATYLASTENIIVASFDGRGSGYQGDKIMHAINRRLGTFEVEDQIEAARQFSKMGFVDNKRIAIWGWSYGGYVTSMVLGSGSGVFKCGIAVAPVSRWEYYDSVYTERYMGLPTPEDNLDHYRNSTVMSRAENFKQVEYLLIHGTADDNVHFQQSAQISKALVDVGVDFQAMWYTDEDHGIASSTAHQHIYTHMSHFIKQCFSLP
Procedure: DPP-IV cleavage assay. Since GLP-1 is rapidly inactivated by DPP-IV, an in vitro assay was established to quantitate intact (i.e. uncleaved) GLP-1 mimetibody. Briefly, GLP-1 mimetibody or peptide (1.2 nM) was incubated at room temperature with DPP-IV (1 μg/mL, R&D Systems). After various times (0, 5, 10, 15, 20, 30, 40 minutes), a DPP-IV inhibitor (100 μM, Linco) was added to quench the reaction. The amount of intact GLP-1 mimetibody or peptide was measured using the GLP-1 Active ELISA (Linco) and the GLP-1 mimetibody or peptides for the respective standard curves.

[6] = system: control HEK293 cells; experiment: FACS binding assay, control HEK293 cells; details: 20 nM, 2 hours at 4° C.
[7] = system: db/db mice; experiment: Fasting blood glucose in db/db mice; type: in vivo
Procedure: GLP-1 mimetibody lowers glucose level in db/db mice. […] Blood glucose was monitored 0.5, 1, 2, 3, and 4 hours post-dosing. […] In addition, consistent with the mechanism of action for GLP-1, the maximum glucose lowering effect achieved at 0.19 nmol was not enhanced by a higher dose of the GLP-1 mimetibody (1.9 nmol). The maximum glucose lowering effect maintained blood glucose values within the normal range.

## GLP-1 (7-36) amide: GLP-1 (7-36) amide
[1]
  time action: about 50 minutes

## GLP-1 (7-36) peptide: wild-type GLP-1 (7-36) peptide (HAEGTFTSDVSSYLEGQAAKEFIAWLVKGR; ends and bridges not checked; UniProt P01275 98-127, looked up, fragment)
[2]
  stimulation of insulin secretion in RINm cells: stimulates insulin release in RINm cells

## GLP-1 mimetibody: GLP-1 peptide (7-36), Gly-Ser linker, J region, IgG1 hinge, CH2 and CH3 construct (SEQ ID NO:2)
[3]
  binding to HEK293 cells over-expressing GLP-1R (FACS): binds to HEK293 cells over-expressing GLP-1R
[4]
  remained intact in human serum after 24 hours: > 90%
[5]
  resistance to cleavage by DPP-IV relative to the GLP-1 peptide: significantly more resistant to cleavage by DPP-IV
[6]
  binding to control HEK293 cells (FACS): not to control HEK293 cells
[7]; doses ranging from 0.019 to 1.9 nmol
  lowering of fasting blood glucose compared to control animals: effective in lowering the fasting blood glucose
[7]; not enhanced by 1.9 nmol
  dose at which maximum glucose lowering effect was achieved: 0.19 nmol

## GLP-1 peptide: GLP-1 peptide used as comparator [reference compound]
[7]; db/db mice fasted two hours, intravenous, mimetibody dose 100-fold lower than peptide dose
  blood glucose over 4 hours post-dosing: lowered blood glucose at 30 minutes, but by 60 minutes, the blood glucose began to increase again

## exendin-4 peptide: exendin-4 peptide, positive control
[2]
  stimulation of insulin secretion in RINm cells: stimulates insulin release in RINm cells
